Molecular target: Mast/stem cell growth factor receptor Kit (Homo sapiens, UniProt P10721)
Test: Magnesium chloride (MgCl2), Manganese(II) chloride (MnCl2), Bovine serum albumin (BSA) and dimethylsulfoxide (DMSO) were purchased from Sigma-Aldrich.

Mast/stem cell growth factor receptor Kit, sequence (P10721 whole entry): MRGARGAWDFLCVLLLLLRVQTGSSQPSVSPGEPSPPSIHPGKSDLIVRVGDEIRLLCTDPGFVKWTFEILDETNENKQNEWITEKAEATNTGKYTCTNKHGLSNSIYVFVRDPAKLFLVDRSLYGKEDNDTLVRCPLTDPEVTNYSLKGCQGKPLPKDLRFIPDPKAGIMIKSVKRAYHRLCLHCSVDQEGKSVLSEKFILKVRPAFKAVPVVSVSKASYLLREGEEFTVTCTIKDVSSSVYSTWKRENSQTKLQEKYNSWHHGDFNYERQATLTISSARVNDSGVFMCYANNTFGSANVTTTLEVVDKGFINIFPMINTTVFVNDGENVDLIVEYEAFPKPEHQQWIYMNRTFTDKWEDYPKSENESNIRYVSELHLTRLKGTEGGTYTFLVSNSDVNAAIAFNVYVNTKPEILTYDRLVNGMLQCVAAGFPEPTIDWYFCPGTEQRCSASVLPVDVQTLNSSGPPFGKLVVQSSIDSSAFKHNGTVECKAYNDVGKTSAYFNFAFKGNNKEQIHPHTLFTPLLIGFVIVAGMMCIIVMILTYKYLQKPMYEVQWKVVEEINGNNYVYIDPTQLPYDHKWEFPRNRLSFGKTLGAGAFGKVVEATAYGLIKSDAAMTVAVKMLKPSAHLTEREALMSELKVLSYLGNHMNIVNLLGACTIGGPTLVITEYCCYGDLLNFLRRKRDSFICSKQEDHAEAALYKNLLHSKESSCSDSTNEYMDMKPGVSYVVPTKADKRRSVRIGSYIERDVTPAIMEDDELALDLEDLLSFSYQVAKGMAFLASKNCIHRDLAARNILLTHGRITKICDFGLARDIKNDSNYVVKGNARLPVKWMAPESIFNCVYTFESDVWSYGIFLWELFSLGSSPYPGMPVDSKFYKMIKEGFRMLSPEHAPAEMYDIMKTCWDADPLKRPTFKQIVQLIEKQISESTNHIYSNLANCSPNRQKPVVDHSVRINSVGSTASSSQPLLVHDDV

## Cc1ccc2c(c1-c1ccc3nc(NC(=O)[C@@H]4C[C@@H]4F)sc3c1)CCN2
  IC50: > 10 µM
